Experimental data published in US20240237661A1, “ANTIMICROBIAL SOLUTIONS AND USES THEREOF” (EcoPlanet Environmental LLC, priority 2023, published 2024).
Several values for one entry are separate records, joined by “and”; a condition that tells them apart may be missing. Identical values can stand only once.

What was measured:
[1] = test system: nalidixic acid-resistant Salmonella Enterica serovar Typhimurium; assay: Wing wash model: Salmonella counts in rinsate of experimentally contaminated broiler wings; format: cell-based
Description: As a non-limiting example, the efficacy of Sx on the reduction of nalidixic acid-resistant Salmonella spp. on experimentally contaminated broiler carcasses (using a wing wash model) was tested. Sx was tested at 100 ppm and 200 ppm, with or without lecithin and was compared with an untreated negative control group and peracetic Acid (PAA) at 200 ppm as a commercial comparator. […] Almost 0.6 to 3.0 log reduction has been observed in previous iterations. During those studies, the effectiveness of Sx was studied at different time intervals and fixed time interval. […] Whereas, based on literature and food safety inspection services (USDA) directive 7120.1, PAA has been recommended with the dose range of 50 ppm to 2000 ppm. Under field conditions, most of the establishments use 200 ppm as a whole carcass rinse. Therefore, in this iteration, Sx was compared with PAA at 200 ppm level. In this study, Sx was tested at 1.25% and 2.5% level which are equivalent to 100 ppm and 200 ppm of propionic acid concentration. Lecithin was added to the Sx solution at the rate of 0.02%. Lecithin is believed to enhance the cell wall penetration of propionic acid and isoamyl hexanoate leading to better antimicrobial activity.
For this study, a WHIRL-PAK® bag containing one pair of chicken wings was the experimental unit. On approximately day 47 of the broilers age, approximately 54 broilers were euthanized by severing the jugular vein after euthanization. The carcass was thoroughly washed using hot water. The feathers were removed using a mechanical plucker. The wings were separated from the whole carcass and preserved in a cooler containing ice. Each treatment group was represented by nine sample bags (replicates) containing one pair of wings. Three sample bags from each treatment group were pooled together and identified as first, second and third set as shown in Table 3.
To start with, eighteen pairs of wings were brought to the hood and sprayed with Salmonella typhimurium (Nalidixic Acid Resistant [NAR]) inoculum at the rate of 10 mL per pair. The carcasses were allowed to dry for 15 minutes. Following drying, eighteen pairs of wings were inserted into WHIRL-PAK bags at the rate of one pair per WHIRL-PAK bag. T1 bags were added with non-medicated, sterilized reverse osmosis (SRO) water at the rate of one liter per bag. T2-T6 bags were added with respective medicated, SRO water at the rate of one liter per bag. All the bags were incubated for 15 mins in a cooler containing ice cubes. After 15 minutes, the carcass in each bag was removed from the SRO water bag and inserted into a fresh WHIRL-PAK bag.
Approximately 100 mL of buffered peptone water was added into each bag and agitated for one minute. […]

[2] = test system: range of target microorganisms; settings: both in gas and MIC assays; cited from earlier work

| SMILES | Salmonella count (MPN) ([1]; Salmonella count per mL of wing wash rinsate after 15 mins incubation in medicated SRO water, mean of 9 replicates, concentration in label) | MPN (Actual numbers) ([1]; Salmonella count per mL of wing wash rinsate after 15 mins incubation, concentration in label) | % Reduction ([1]; decrease of Salmonella count compared to untreated control, 15 mins incubation, P<0.05) | Log Reduction ([1]; overall reduction of salmonella count compared to untreated control, 15 mins incubation) | Bioactivity by itself [2] |
| --- | --- | --- | --- | --- | --- |
| CC(=O)OO [PAA 200 ppm, peracetic Acid] | 6.51E+05±5.68E+05 cfu/mL and 6.51E+05 cfu/mL | 650,694 | 84% and 84.55% | 0.77 Log | – |
| CC(C)C(=O)O [isobutyric acid] | – | – | – | – | some limited bioactivity |
